Source: PMC11079024, “Identification of a family of species-selective complex I inhibitors as potential anthelmintics” (Nature Communications, 2024)
Like-named read-outs stand apart in the source and are kept apart here.

What was measured:
[1] = tested on: ben-1 mutant (ECA882) C. elegans; experiment: microbe, parasite or virus in culture; details: Caenorhabditis elegans
Protocol: Liquid development and viability assays were adapted from a previously established chemical screening protocol (Burns et al.)[24]. In brief, a saturated culture of E. coli HB101 was concentrated 2-fold in liquid NGM and 40 μL of this suspension was distributed to each well of a 96-well flat-bottom culture plate. 0.5 μL chemical solution (or DMSO alone) was added to each well (1% DMSO v/v) using either a multi-channel pipette or a pinning tool (V&P Scientific). L1 worms synchronized from an embryo preparation performed the day prior were diluted to a concentration of ~2 worms/μL in M9 buffer; 10 μL worm suspension was then added to each well. Culture plates were sealed with parafilm and placed in a plastic container lined with wet paper towels to prevent evaporation. Containers were then incubated for 6 days at 20 °C with shaking at 165 rpm. Following incubation, 300 μL M9 was added to each well to decrease the turbidity of the HB101-NGM suspension. Single images of each microplate well were then taken on a Nikon Ti Eclipse inverted microscope (Nikon NIS Elements AR). Images were processed using Python scripts to isolate worm-associated pixels from background. Scores of worm development and viability were determined as the sum of worm-associated pixels in each well. Development/viability scores for each well were divided by the development /viability scores for the corresponding DMSO controls, resulting in a relative viability value for each chemical. At least three biological replicates were performed for each dose-response experiment; relative viability values were averaged across replicates. […]
anthelmintics. a. Chemical structures of four commercial benzimidazole anthelmintics (e.g., albendazole, […]
Dose response of four commercial […]
elegans strains: N2, wild type; ECA882, deletion (ben-1); ECA917, F200Y (ben-1); ECA1075, F167Y (ben-1); ECA1080, E198A (ben-1); CB3474, G104D (ben-1). The colour-coded scale denotes the phenotypic outcome of drug treatment (e.g., motility or viability) relative to DMSO controls; white/pale- […]
death and arrested development. c. […]
benzimidazole anthelmintics (blue) were conducted in C. elegans development and viability assays for wild type (N2) and ben-1 mutant (ECA882) C. elegans (see Supplementary Date File 1).
All data used for generation of dose-response curves is the mean of at least three […]
Supplementary Figure 7 (continued). Davie et al.

L1 wild-type C. elegans [2] = details: for Relative Motility: relative to DMSO controls, single biological replicate
[3] = molecular target: C. elegans (N2) complex I (NADH:ubiquinone oxidoreductase) (Caenorhabditis elegans, UniProt P24887+Q93873+Q94360); experiment: biochemical; assay type: biochemical; details: for Log IC50 C. elegans complex I: log10 of IC50 in µM, C. elegans mitochondria
Protocol: Mitochondria were isolated from the following free-living nematode strains: C. elegans—N2, CB3474, ECA882, ECA917, ECA1075, ECA1080; C. briggsae—AF16; P. pacificus—PS312; and P. hermaphrodita—B178. With the exception of the P. hermaphrodita strain B178, adult worms of each strain were grown in bulk through liquid culture to obtain mitochondria in sufficient quantities. Due to poor growth in liquid media, mixed stage populations of P. hermaphrodita were washed off and collected from NGM plates seeded with OP50. The isolation of mitochondria from all free-living nematode strains followed the protocol previously outlined in Burns et al.[24]. In brief, a 1 L saturated culture of E. coli HB101 was concentrated 20-fold in 50 mL complete S-medium. ~500,000 L1 worms synchronized from an embryo preparation performed the day prior were added to the S-media/HB101 suspension and grown to adulthood over the course of 3.5 days at 20 °C with shaking at 165 rpm. Following growth, worms were collected in 10 ×15 mL conical tubes and washed 7 times in M9 buffer. Worm suspensions were then combined into a single 15 mL conical tube and diluted to a final volume of 15 mL with M9 buffer. 1 mL aliquots of worm suspension were then distributed to 15 × 1.5 mL screw-cap microcentrifuge tubes and were pelleted at 500 g for 1 min. Excess M9 was aspirated without disturbing the worm pellet. 600 μL ice-cold isolate buffer A (250 mM sucrose, 10 mM Tris (pH 7.5), 1 mM EDTA, 1 mM PMSF (freshly prepared)) and 300 μL cold glass beads were then added to each tube. Tubes were incubated on ice for 10 min, and the worms were then lysed by bead beating (6 x 30 s, with 1 min cooling intervals). Tubes containing worm lysate were centrifuged at 1,000 g for 10 min at 4 °C and the supernatant was transferred to 15 new microcentrifuge tubes on ice. The tubes were centrifuged a second time at 1,000 g for 10 min at 4 °C and the supernatant was once again transferred to 15 new microcentrifuge tubes on ice. These tubes were then centrifuged at 16,000 g for 10 min at 4 °C. The resulting mitochondrial pellet was washed twice by re-suspension in 300 μL of ice-cold isolate buffer B (250 mM sucrose, 10 mM Tris (pH 7.5), 1 mM EDTA). Following the final wash, isolation buffer was aspirated from each tube and the pellets were flash-frozen in ethanol/dry ice and stored at −80 °C until needed.
(§1) The enzymatic activities of individual ETC complexes (I-IV) were assessed spectrophotometrically in isolated mitochondria using a Varioskan LUX Multimode plate reader (ThermoFisher Scientific). Mitochondrial pellets previously isolated were thawed on ice and resuspended in ice-cold isolation buffer (250 mM sucrose, 10 mM Tris (pH 7.5), 1 mM EDTA). The BCA assay (Walker, 1994) was used to quantify the protein concentration of mitochondria suspensions; solutions were diluted to a concentration of 0.2 mg/mL for use in all assays. For the complex I assay, mitochondria pellets were freeze-thawed on ice three times to increase enzyme accessibility. […] 20 μL mitochondria suspension was then added/mixed with a pipette to initiate the reaction. Immediately following the addition of mitochondria, absorbance was measured (complex I and II: 600 nm; complex III and IV: 550 nm) in 30 s intervals over 15 min. Enzymatic activity was determined in each reaction by plotting absorbance versus time and calculating the slope of the curve during the initial linear phase of the reaction. […] Percent activity of each complex was calculated by dividing the enzyme-specific activity of each well by the enzyme-specific activity of the corresponding solvent controls.
(§2) Chemical solutions were prepared in complex I assay buffer composed of 25 mM KPi buffer (pH 7.5), 3 mg/mL bovine serum albumin (BSA), 80 μM NADH, 60 μM decylubiquinone, 160 μM DCIP, 2 μM antimycin A and 2 mM KCN.
For preliminary screens of hit compounds, compounds were screened at 100 μM; data are the average of at least three biological replicates.

L1 wild-type C. elegans [4] = experiment: microbe, parasite or virus in culture; details: Caenorhabditis elegans, read-out: C. elegans KCN Survival Assay LC50, estimated from fitted dose-response curves; mean of at least two biological replicates
[5] = molecular target: B. taurus (heart) complex I (Bos taurus, UniProt P03887+P17694+P42026); experiment: biochemical; assay type: biochemical; details: for IC50: B. taurus heart mitochondria, read-out: B. taurus Complex I IC50; for Log IC50 B. taurus complex I: log10 of IC50 in µM, B. taurus mitochondria
Protocol: Six 8–10-week-old C57Bl/6 female mice (Charles River) were freshly dissected, and their livers and hearts collected into separate 1.5 mL microcentrifuge tubes. Organs were flash-frozen in liquid nitrogen and stored at −80 °C prior to use. The heart of a freshly slaughtered adult cow was obtained from a local abattoir (Peel Sausage Inc.), chopped into ~1-inch cubes and collected into 50 mL falcon tubes. Falcon tubes were flash-frozen in a container of dry ice and stored at −80 °C prior to use. Isolation of mitochondria from all mammalian tissue was carried out following the protocol described above. However, due to size, the initial homogenization of tissue was performed by 15 strokes in a dounce homogenizer (mouse heart) or with several 5 s pulses in small Nutribullet blender (cow heart). All mouse protocols for mouse care and dissection were reviewed and approved by the University of Toronto Animal Care Committee, in accordance with the Canadian Council on Animal Care.
as §1, §2
For preliminary screens of hit compounds, compounds were screened at 100 μM; data are the average of at least three biological replicates. The complex I and II activity assays were used for additional dose-response experiments. […] For dose responses of benzimidazole analogs, data represent the average of two biological replicates. For all other dose-responses, data represent the average of at least three biological replicates.

in vitro = details: human
[6] = read-out: C. elegans (ben-1) Development & Viability Assay LC50
[7] = read-out: C. elegans ben-1 log10 LC50 (converted)
[8] = 50 μM compound, hit = relative motility below 0.25 3 hours after removal of KCN
[9] = wild-type C. elegans mitochondria, estimated from fitted dose-response curves, read-out: C. elegans Complex I IC50
[10] = in vitro complex I dose response on C. elegans mitochondria, average of at least two biological replicates, fit in R (DRC), read-out: IC50 C. elegans complex I
[11] = wild-type C. elegans mitochondria, read-out: C. elegans Complex I IC50
[12] = 50 μM, KCN survival assay, hit = relative motility below 0.25
[13] = 50 μM, worm motility 3 hours after the removal of KCN (endpoint)
[14] = HEK293 Cell Viability Assay LC50, HEK293 cells, estimated from fitted dose-response curves, mean of at least two biological replicates

C. elegans (N2) complex I (NADH:ubiquinone oxidoreductase), sequence (Q94360 17-199): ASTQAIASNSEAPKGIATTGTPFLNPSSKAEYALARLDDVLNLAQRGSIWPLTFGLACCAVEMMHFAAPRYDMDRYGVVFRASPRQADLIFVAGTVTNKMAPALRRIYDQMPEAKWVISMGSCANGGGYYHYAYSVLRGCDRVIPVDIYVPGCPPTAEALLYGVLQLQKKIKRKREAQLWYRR
C. elegans (N2) complex I (NADH:ubiquinone oxidoreductase), sequence (P24887 whole entry): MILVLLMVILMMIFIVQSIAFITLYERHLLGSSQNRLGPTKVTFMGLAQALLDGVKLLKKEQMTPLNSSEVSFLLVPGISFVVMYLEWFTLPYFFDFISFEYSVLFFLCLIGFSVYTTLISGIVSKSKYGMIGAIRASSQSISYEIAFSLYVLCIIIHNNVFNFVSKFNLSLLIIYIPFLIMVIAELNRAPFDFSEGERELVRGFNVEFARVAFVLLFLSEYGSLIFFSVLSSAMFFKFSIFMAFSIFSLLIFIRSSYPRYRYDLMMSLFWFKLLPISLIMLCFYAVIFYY
C. elegans (N2) complex I (NADH:ubiquinone oxidoreductase), sequence (Q93873 31-482): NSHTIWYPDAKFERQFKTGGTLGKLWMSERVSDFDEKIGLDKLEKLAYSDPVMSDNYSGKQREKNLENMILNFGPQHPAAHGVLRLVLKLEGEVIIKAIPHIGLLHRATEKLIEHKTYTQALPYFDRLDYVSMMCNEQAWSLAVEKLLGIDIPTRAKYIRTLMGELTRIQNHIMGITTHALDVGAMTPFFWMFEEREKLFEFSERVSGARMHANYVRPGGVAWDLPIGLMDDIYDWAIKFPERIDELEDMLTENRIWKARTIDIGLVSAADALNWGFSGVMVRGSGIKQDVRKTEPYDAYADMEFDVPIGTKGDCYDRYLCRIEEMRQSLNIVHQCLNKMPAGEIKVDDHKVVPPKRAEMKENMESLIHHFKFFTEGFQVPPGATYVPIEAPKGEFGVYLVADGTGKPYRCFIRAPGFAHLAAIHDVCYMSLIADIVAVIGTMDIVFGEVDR
B. taurus (heart) complex I, sequence (P03887 whole entry): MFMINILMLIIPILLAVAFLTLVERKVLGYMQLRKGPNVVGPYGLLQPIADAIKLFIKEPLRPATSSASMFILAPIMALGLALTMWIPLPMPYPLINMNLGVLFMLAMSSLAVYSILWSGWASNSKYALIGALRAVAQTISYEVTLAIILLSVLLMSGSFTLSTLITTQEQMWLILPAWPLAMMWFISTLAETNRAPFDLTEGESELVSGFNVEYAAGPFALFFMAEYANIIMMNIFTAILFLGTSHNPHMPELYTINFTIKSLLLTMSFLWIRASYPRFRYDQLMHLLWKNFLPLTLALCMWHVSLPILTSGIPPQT
B. taurus (heart) complex I, sequence (P17694 34-463): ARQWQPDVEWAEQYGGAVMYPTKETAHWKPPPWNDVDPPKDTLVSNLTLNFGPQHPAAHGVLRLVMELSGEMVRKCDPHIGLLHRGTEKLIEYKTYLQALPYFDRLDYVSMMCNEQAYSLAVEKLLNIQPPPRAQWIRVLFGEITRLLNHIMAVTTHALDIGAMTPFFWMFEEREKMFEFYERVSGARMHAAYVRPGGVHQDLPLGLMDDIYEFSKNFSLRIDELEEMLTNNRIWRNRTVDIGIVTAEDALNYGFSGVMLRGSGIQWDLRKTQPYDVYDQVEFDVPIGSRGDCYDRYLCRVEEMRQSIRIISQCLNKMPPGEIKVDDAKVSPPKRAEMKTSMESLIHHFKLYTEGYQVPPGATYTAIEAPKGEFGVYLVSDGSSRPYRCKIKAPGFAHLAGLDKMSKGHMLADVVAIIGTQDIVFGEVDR
B. taurus (heart) complex I, sequence (P42026 38-216): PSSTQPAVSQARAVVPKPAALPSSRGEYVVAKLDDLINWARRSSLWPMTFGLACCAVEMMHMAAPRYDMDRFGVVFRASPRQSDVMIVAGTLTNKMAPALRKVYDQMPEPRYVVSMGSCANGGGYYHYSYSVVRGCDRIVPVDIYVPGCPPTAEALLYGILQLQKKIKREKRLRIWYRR

Row | SMILES | LC50 [1, 6] [µM] | LC50 [1, 7] [µM] | Screen "Hit" (L1 wild-type C. elegans [2]; [8]) | Relative Motility (L1 wild-type C. elegans [2]; 50 μM compound, worm motility 3 hours after removal of KCN) | IC50 [3, 9] [µM] | LC50 (L1 wild-type C. elegans [4]) [µM] | Hit (L1 wild-type C. elegans [2]; active or inactive at 50 μM in C. elegans assay of RQ-dependent metabolism) | IC50 [5] [µM] | Log IC50 B. taurus complex I [5] [µM] | IC50 [3, 10] [µM] | Log IC50 C. elegans complex I [3] [µM] | IC50 [3, 11] [µM] | CC50 at 2 days (in vitro; HEK293 Cell Viability Assay LC50, HEK293 cells, estimated from fitted dose-response curves) [µM] | IC50 ([3]; wild-type (N2) mitochondria, read-out: C. elegans Complex I IC50) [µM] | CC50 at 2 days (in vitro) [µM] | Screen "Hit" (L1 wild-type C. elegans [2]; [12]) | Relative Motility (L1 wild-type C. elegans [2]; [13]) | CC50 at 2 days (in vitro; [14]) [µM]
1 | C(=C\c1nc2ccccc2[nH]1)/c1ccccc1 [STK871091] | 148 | 148 | Y (hits were identified as compounds that reduced relative motility below 0.25 (75% reduction)) | 0.008 | > 75 | 15 |  |  |  |  |  |  |  |  |  |  |  | 
2 | Nc1nc2ccccc2n1CCCOc1ccccc1 [Compound 7915320] | 150 | 150 |  |  |  | 23.7 | non | 15.6 | 1.19 | 6.9 | 0.84 | 6.9 | 60 |  |  |  |  | 
3 | Cc1nc2ccccc2n1Cc1ccc(C(C)(C)C)cc1 [Compound 5521938] | 272 | 272 | Y (hits were identified as compounds that reduced relative motility below 0.25 (75% reduction)) |  |  | 11 |  | 1.18 | 0.07 | 2.57 | 0.41 | 2.57 |  | 2.57 | 35.3 |  |  | 
4 | CCn1c(/C=C/c2ccc(F)cc2)nc2ccccc21 [Compound 7147614] | 77 | 77.1 |  |  | > 75 | 14.4 |  |  |  |  |  |  |  |  |  | Y (hits were identified as compounds that reduced relative motility below 0.25 (75% reduction)) | 0.130 | 41
5 | COc1ccccc1/C=C/c1nc2ccccc2[nH]1 [Compound 7148894] | 188 | 188 |  |  | > 75 | 9.02 |  |  |  |  |  |  |  |  |  | Y (hits were identified as compounds that reduced relative motility below 0.25 (75% reduction)) | 0.170 | < 12.5
